Measurements from patent US20150050663A1, “Optimal Gonadotropin Dosage” (Oslo Universitetssykehus HF, priority 2012, published 2015).

Tested on: peripheral blood monocytes
Test: uptake of fluorochrome-conjugated gonadotropins by blood-derived leukocytes (FACS)
Format: cell-based, human
Conditions: FIG. 1B
Experimental: Blood-derived monocytes are enriched by density gradient centrifugation. […] Cells are labelled with fluorochrome-conjugated monocyte marker (e.g. anti-CD14-PerCP antibody, as described above) and analyzed with multi-colour flow cytometry (FACS).
Unspecific binding (background) is estimated as MFI for cells incubated on ice
Cells were analyzed with flow cytometry (FACS) with simultaneous detection of multiple cell lineage markers.

Q: For cytochalasin, which “effect on gonadotropin binding to monocytes” value is on record?
A: inhibited
